Data published in PMC7763418 (Journal of the American Heart Association: Cardiovascular …, 2020).

What was measured:
[1] = test system: healthy male participants; experiment: Heart rate, arterial line/ECG recording; assay type: in vivo, human; details: days B and C, after 15 min of esmolol 1.25 mg/kg bolus+[…] iv
[2] = test system: cardiac beta 1 receptors; details: esmolol dose used (1.25 mg/kg bolus+[…]); cited from earlier work
[3] = test system: healthy male participants; experiment: Relative stroke volume; assay type: in vivo, human; details: esmolol 1.25 mg/kg bolus+[…] iv

COC(=O)CCc1ccc(OCC(O)CNC(C)C)cc1 (stereo not shown) [esmolol]
Average heart rate at baseline (0 min) [1]: 58.2 bpm | Cardiac beta 1 receptors blocked [2]: > 85% | Reduction of mean stroke volume from −15 minutes to baseline ([3]; day B): 13.7% | Reduction of mean stroke volume from −15 minutes to baseline ([3]; day C, before glucagon): 25.8%
